Legend:
TRα = target: T1, TRα (Homo sapiens, UniProt P10827); test: Thyroid-hormone reporter-gene assay, TRα (Gal4 DBD hybrid, luciferase, HEK293); type: cell-based; conditions: reporter cells derived from HEK293, 24 hr incubation, luciferase readout
T1 construct: expressed in transfected cells; host or cells: HEK293
T1 sequence (P10827 128-410 isoform P10827-2 limits assumed): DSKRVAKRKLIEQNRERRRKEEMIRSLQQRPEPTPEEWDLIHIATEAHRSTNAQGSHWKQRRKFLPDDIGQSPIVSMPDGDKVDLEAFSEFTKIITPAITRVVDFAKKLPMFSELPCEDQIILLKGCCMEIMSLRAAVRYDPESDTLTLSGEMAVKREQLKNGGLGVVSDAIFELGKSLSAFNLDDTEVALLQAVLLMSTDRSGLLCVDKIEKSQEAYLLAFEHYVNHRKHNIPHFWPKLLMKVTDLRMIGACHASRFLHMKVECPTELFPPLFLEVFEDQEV
Protocol: (§1) Compounds were tested for thyroid-hormone receptor activity using TR reporter-gene assays. Reporter cells used in the assays express a TR-receptor hybrid (either TRα or TRβ) in which the native N-terminal DNA binding domain (DBD) has been replaced with that of the yeast Gal4 DBD. The reporter gene, firefly luciferase, is functionally linked to the Gal4 upstream activation sequence (UAS). Both cell lines were derived from human embryonic kidney (HEK293).
(§2) A suspension of reporter cells was prepared in cell recovery medium containing 10% charcoal-stripped FBS, and dispensed into assay plates. The plates were pre-incubated for 6 hours in a cell culture incubator (37° C./5% CO2/85% humidity).
(§3) These intermediate stocks were subsequently diluted directly into compound screening medium containing 10% charcoal-stripped FBS to generate “2×-concentration” treatment media (containing 0.2, 0.4 or 0.8% DMSO).
(§4) At the end of the pre-incubation period, culture media were discarded from the assay plates, and all wells received 100 μl of compound screening medium. 100 μl of each of the previously prepared “2×-concentration” treatment media were dispensed into duplicate assay wells, thereby achieving the desired final treatment concentrations. The final concentration of DMSO in all assay wells was 0.1, 0.2 or 0.4%. Assay plates were incubated for 24 hr in a cell culture incubator (37° C./5% CO2/85% humidity).
(§5) At the 24 h assay endpoint, treatment media were discarded and […] of luciferase detection reagent was added. Relative luminometer units (RLUs) were quantified from each assay well.

TRβ = target: T2, TRβ (Homo sapiens, UniProt P10828); test: Thyroid-hormone reporter-gene assay, TRβ (Gal4 DBD hybrid, luciferase, HEK293); type: cell-based; conditions: for T3-SI, selectivity index (SI) calculated as EC50 (TRα)/EC50 (TRβ): TRβ over TRα selectivity from reporter-gene EC50 values; for EC50: reporter cells derived from HEK293, 24 hr incubation, luciferase readout
T2 construct: expressed in transfected cells; host or cells: HEK293
T2 sequence (P10828 217-461 limits assumed): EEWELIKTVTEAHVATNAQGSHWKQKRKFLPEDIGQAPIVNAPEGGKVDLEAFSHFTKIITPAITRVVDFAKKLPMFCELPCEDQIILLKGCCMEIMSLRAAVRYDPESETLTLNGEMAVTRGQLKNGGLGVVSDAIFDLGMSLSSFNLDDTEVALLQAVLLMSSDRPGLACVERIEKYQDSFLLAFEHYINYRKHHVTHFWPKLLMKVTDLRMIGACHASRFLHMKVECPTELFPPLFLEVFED
Protocol: as §1, §2, §3, §4, §5

`O=C(O)COc1cc(Cl)c(Cc2ccc(O)c(-c3cc(OC(F)F)ccc3F)c2)c(Cl)c1` [Compound 52, 2-(3,5-dichloro-4-((5′-(difluoromethoxy)-2′-fluoro-6-hydroxy-[1,1′-biphenyl]-3-yl)methyl)phenoxy)acetic Acid] was tested, and the EC50 (TRα) was 0.1 to 1 µM, the “T3-SI, selectivity index (SI) calculated as EC50 (TRα)/EC50 (TRβ)” value (“T3-SI, selectivity index (SI) calculated” for short) (TRβ) was “++ (3X < T3-SI ≤ 30X)” and the EC50 (TRβ) was 0.01 to 0.1 µM.

`O=C(O)COc1cc(Cl)c(Cc2ccc(O)c(-c3ccsc3)c2)c(Cl)c1` [Compound 42, 2-(3,5-dichloro-4-(4-hydroxy-3-(thiophen-3-yl)benzyl)phenoxy)acetic acid] was tested, and the EC50 (TRα) was > 1 µM, the “T3-SI, selectivity index (SI) calculated” value (TRβ) was “++ (3X < T3-SI ≤ 30X)” and the EC50 (TRβ) was 0.1 to 1 µM.

For `O=C(O)COc1cc(Cl)c(Cc2ccc(O)c(-c3csc(Cl)c3)c2)c(Cl)c1` [Compound 43, 2-(3,5-dichloro-4-(3-(5-chlorothiophen-3-yl)-4-hydroxybenzyl)phenoxy) acetic Acid], the EC50 (TRα) was > 1 µM, the “T3-SI, selectivity index (SI) calculated” value (TRβ) was “++ (3X < T3-SI ≤ 30X)” and the EC50 (TRβ) was 0.1 to 1 µM.

In the case of `O=C(O)COc1cc(Cl)c(Cc2ccc(O)c(-c3cccc(Cl)c3)c2)c(Cl)c1` [Compound 29, 2-(3,5-dichloro-4-((3′-chloro-6-hydroxy-[1,1′-biphenyl]-3-yl)methyl)phenoxy)acetic Acid], the EC50 (TRα) is reported as 0.1 to 1 µM, the “T3-SI, selectivity index (SI) calculated” value (TRβ) is reported as “++ (3X < T3-SI ≤ 30X)” and the EC50 (TRβ) is reported as 0.01 to 0.1 µM.

In the case of `O=C(COc1cc(Cl)c(Cc2ccc(O)c(-c3cccc(OC(F)F)c3)c2)c(Cl)c1)N1CC1` [Compound 138, 1-(aziridin-1-yl)-2-(3,5-dichloro-4-((3′-(difluoromethoxy)-6-hydroxy-[1,1′-biphenyl]-3-yl)methyl)phenoxy)ethan-1-one], the EC50 (TRα) is reported as > 1 µM, the “T3-SI, selectivity index (SI) calculated” value (TRβ) is reported as “++ (3X < T3-SI ≤ 30X)” and the EC50 (TRβ) is reported as 0.1 to 1 µM.

In the case of `Cc1cc(OCC(=O)O)cc(Cl)c1Cc1ccc(O)c(-c2cccc(OC(F)F)c2)c1` [Compound 62, 2-(3-chloro-4-((3′-(difluoromethoxy)-6-hydroxy-[1,1′-biphenyl]-3-yl)methyl)-5-methylphenoxy)acetic Acid], the EC50 (TRα) is reported as > 1 µM, the “T3-SI, selectivity index (SI) calculated” value (TRβ) is reported as “++ (3X < T3-SI ≤ 30X)” and the EC50 (TRβ) is reported as 0.1 to 1 µM.

`O=C(O)COc1cc(Cl)c(Cc2ccc(O)c(-c3ccoc3)c2)c(Cl)c1` [Compound 40, 2-(3,5-dichloro-4-(3-(furan-3-yl)-4-hydroxybenzyl)phenoxy)acetic acid] was tested, and the EC50 (TRα) was > 1 µM, the “T3-SI, selectivity index (SI) calculated” value (TRβ) was “++ (3X < T3-SI ≤ 30X)” and the EC50 (TRβ) was > 1 µM.

In the case of `O=C(O)COc1cc(Cl)c(Cc2ccc(O)c(-c3cccc(OC(F)(F)F)c3)c2)c(Cl)c1` [Compound 12, 2-(3,5-dichloro-4-((6-hydroxy-3′-(trifluoromethoxy)-[1,1′-biphenyl]-3-yl)methyl)phenoxy)acetic Acid], the EC50 (TRα) is reported as > 1 µM, the “T3-SI, selectivity index (SI) calculated” value (TRβ) is reported as “+++ (T3-SI > 30X)” and the EC50 (TRβ) is reported as 0.1 to 1 µM.

In the case of `O=C(O)COc1cc(Cl)c(Cc2ccc(O)c(Cc3ccc(F)cc3)c2)c(Cl)c1` [Compound 70, 2-(3,5-dichloro-4-(3-(4-fluorobenzyl)-4-hydroxybenzyl)phenoxy)acetic Acid], the EC50 (TRα) is reported as > 1 µM, the “T3-SI, selectivity index (SI) calculated” value (TRβ) is reported as “+++ (T3-SI > 30X)” and the EC50 (TRβ) is reported as 0.1 to 1 µM.

`CS(=O)(=O)c1cccc(-c2cc(Cc3c(Cl)cc(OCC(=O)O)cc3Cl)ccc2O)c1` [Compound 14, 2-(3,5-dichloro-4-((6-hydroxy-3′-(methylsulfonyl)-[1,1′-biphenyl]-3-yl)methyl)phenoxy)acetic Acid] was tested, and the EC50 (TRβ) was > 1 µM.

`CCOC(=O)c1cccc(-c2cc(Cc3c(Cl)cc(OCC(=O)O)cc3Cl)ccc2O)c1` [Compound 6, 2-(3,5-dichloro-4-((3′-(ethoxycarbonyl)-6-hydroxy-[1,1′-biphenyl]-3-yl)methyl)phenoxy)acetic Acid] was tested, and the EC50 (TRβ) was > 1 µM.

For `Cc1ccoc1-c1cc(Cc2c(Cl)cc(OCC(=O)O)cc2Cl)ccc1O` [Compound 44, 2-(3,5-dichloro-4-(4-hydroxy-3-(3-methylfuran-2-yl)benzyl)phenoxy)acetic Acid], the EC50 (TRβ) was > 1 µM.

In the case of `O=C(O)COc1cc(Cl)c(Cc2ccc(O)c(Cc3cncnc3)c2)c(Cl)c1` [Compound 94, 2-(3,5-dichloro-4-(4-hydroxy-3-(pyrimidin-5-ylmethyl)benzyl)phenoxy) acetic Acid], the EC50 (TRβ) is reported as > 1 µM.

`CC(=O)Nc1cccc(-c2cc(Cc3c(Cl)cc(OCC(=O)O)cc3Cl)ccc2O)c1` [Compound 9, 2-(4-((3′-acetamido-6-hydroxy-[1,1′-biphenyl]-3-yl)methyl)-3,5-dichlorophenoxy)acetic Acid] was tested, and the EC50 (TRβ) was > 1 µM.

With `O=C(O)COc1cc(Cl)c(Cc2ccc(O)c(-c3cccc(CO)c3)c2)c(Cl)c1` [Compound 8, 2-(3,5-dichloro-4-((6-hydroxy-3′-(hydroxymethyl)-[1,1′-biphenyl]-3-yl)methyl)phenoxy)acetic Acid] the EC50 (TRβ) was > 1 µM.

`O=C(O)COc1cc(Cl)c(Cc2ccc(O)c(-c3ccc(C(F)(F)F)s3)c2)c(Cl)c1` [Compound 37] was tested, and the EC50 (TRβ) was > 1 µM.

`O=C(O)COc1cc(Cl)c(Cc2ccc(O)c(-c3ccc(F)c(OC(F)F)c3)c2)c(Cl)c1` [Compound 55, 2-(3,5-dichloro-4-((3′-(difluoromethoxy)-4′-fluoro-6-hydroxy-[1,1′-biphenyl]-3-yl)methyl)phenoxy)acetic Acid] was tested, and the EC50 (TRβ) was > 1 µM.

In the case of `N#Cc1ccc(Cc2cc(Cc3c(Cl)cc(OCC(=O)O)cc3Cl)ccc2O)cc1` [Compound 80, 2-(3,5-dichloro-4-(3-(4-cyanobenzyl)-4-hydroxybenzyl)phenoxy)acetic Acid], the EC50 (TRβ) is reported as > 1 µM.

`Cc1ccc(Cc2cc(Cc3c(Cl)cc(OCC(=O)O)cc3Cl)ccc2O)cc1` [Compound 92, 2-(3,5-dichloro-4-(4-hydroxy-3-(4-methylbenzyl)benzyl)phenoxy)acetic Acid] was tested, and the EC50 (TRβ) was > 1 µM.

With `O=C(O)COc1cc(Cl)c(Cc2ccc(O)c(-c3cccc(C(F)(F)C(F)(F)F)c3)c2)c(Cl)c1` [Compound 28, 2-(3,5-dichloro-4-((6-hydroxy-3′-(perfluoroethyl)-[1,1′-biphenyl]-3-yl)methyl)phenoxy)acetic Acid] the EC50 (TRβ) was > 1 µM.

`COCc1cccc(-c2cc(Cc3c(Cl)cc(OCC(=O)O)cc3Cl)ccc2O)c1` [Compound 15, 2-(3,5-dichloro-4-((6-hydroxy-3′-(methoxymethyl)-[1,1′-biphenyl]-3-yl)methyl)phenoxy)acetic Acid] was tested, and the EC50 (TRβ) was > 1 µM.

In the case of `O=C(O)COc1cc(Cl)c(Cc2ccc(O)c(Cc3ccc(CC(F)(F)F)cc3)c2)c(Cl)c1` [Compound 96, 2-(3,5-dichloro-4-(4-hydroxy-3-(4-(2,2,2-trifluoroethyl)benzyl)benzyl)phenoxy)acetic Acid], the EC50 (TRβ) is reported as > 1 µM.

In the case of `O=C(O)COc1cc(Cl)c(Cc2ccc(O)c(-c3ccc(F)c(C(F)(F)F)c3)c2)c(Cl)c1` [Compound 48, 2-(3,5-dichloro-4-((4′-fluoro-6-hydroxy-3′-(trifluoromethyl)-[1,1′-biphenyl]-3-yl)methyl)phenoxy)acetic acid], the EC50 (TRβ) is reported as > 1 µM.

Work on `O=C(O)COc1cc(Cl)c(Cc2ccc(O)c(-c3cc(F)cc(C(F)(F)F)c3)c2)c(Cl)c1` [Compound 50, 2-(3,5-dichloro-4-((3′-fluoro-6-hydroxy-5′-(trifluoromethyl)-[1,1′-biphenyl]-3-yl)methyl)phenoxy)acetic Acid] yielded an EC50 (TRβ) of 0.1 to 1 µM.
